In brackets after ≈: the same amount, converted by molar mass. Blank lines part the entries; values can stand above or below the molecule they belong to.
Legend:
[1] = system: Plasmodium falciparum; assay: Antimalarial activity against CQ-sensitive Plasmodium falciparum 3D7; format: functional, organism-based
[2] = system: Plasmodium falciparum; assay: Antimalarial activity against CQ-resistant Plasmodium falciparum RKL9; format: functional, organism-based
[3] = system: Plasmodium berghei; assay: Antiplasmodial activity against Plasmodium berghei infected in mouse assessed as reduction in parasitaemia at 200 mg/kg/day, ip administered for 4 days; format: functional; set-up: scale not given: the % may be the effect or the level left; settings: time 4 day
[4] = system: Plasmodium berghei; assay: Antiplasmodial activity against Plasmodium berghei infected in mouse assessed as reduction in parasitaemia at 35 umol/kg, sc administered for 4 days; format: functional; set-up: scale not given: the % may be the effect or the level left; settings: dose 35 µmol/kg, time 4 day
[5] = system: Plasmodium berghei; assay: Antiplasmodial activity against Plasmodium berghei infected in mouse assessed as reduction in parasitaemia at 105 umol/kg, po; format: functional; set-up: scale not given: the % may be the effect or the level left; settings: dose 105 µmol/kg
[6] = system: Hemozoin; assay: Inhibition of beta-hematin formation
[7] = system: Plasmodium berghei; assay: Inhibition of hemozoin formation in Plasmodium berghei infected in mouse; format: functional
[8] = system: NCI-H460; assay: Antiproliferative activity against human NCI-H460 cells; format: functional, cell-based
[9] = system: PANC-1; assay: Antiproliferative activity against human PANC-1 cells; format: functional, cell-based
[10] = system: MIA PaCa-2; assay: Antiproliferative activity against human MIA PaCa-2 cells; format: functional, cell-based
[11] = system: HT-29; assay: Antiproliferative activity against human HT-29 cells; format: functional, cell-based
[12] = system: A-375; assay: Antiproliferative activity against human A-375 cells; format: functional, cell-based
[13] = Antiproliferative activity against HUVEC cells; format: toxicity, cell-based; settings: human
[14] = system: PC-3; assay: Antiproliferative activity against human PC-3 cells; format: functional, cell-based
[15] = system: KG-1; assay: Cytotoxicity against human KG-1 cells; format: functional, cell-based
[16] = system: Raji; assay: Cytotoxicity against human Raji cells; format: functional, cell-based
[17] = system: MDA-MB-231; assay: Cytotoxicity against human MDA-MB-231 cells; format: functional, cell-based
[18] = system: HCT-116; assay: Cytotoxicity against human HCT-116 cells; format: functional, cell-based
[19] = target: Serine/threonine-protein kinase mTOR (Homo sapiens, UniProt P42345); assay: Inhibition of mTOR (unknown origin)
[20] = target: Dual specificity mitogen-activated protein kinase kinase 1 (Homo sapiens, UniProt Q02750); assay: Inhibition of MEK1 (unknown origin)
Sequence of Dual specificity mitogen-activated protein kinase kinase 1 (Q02750 whole entry): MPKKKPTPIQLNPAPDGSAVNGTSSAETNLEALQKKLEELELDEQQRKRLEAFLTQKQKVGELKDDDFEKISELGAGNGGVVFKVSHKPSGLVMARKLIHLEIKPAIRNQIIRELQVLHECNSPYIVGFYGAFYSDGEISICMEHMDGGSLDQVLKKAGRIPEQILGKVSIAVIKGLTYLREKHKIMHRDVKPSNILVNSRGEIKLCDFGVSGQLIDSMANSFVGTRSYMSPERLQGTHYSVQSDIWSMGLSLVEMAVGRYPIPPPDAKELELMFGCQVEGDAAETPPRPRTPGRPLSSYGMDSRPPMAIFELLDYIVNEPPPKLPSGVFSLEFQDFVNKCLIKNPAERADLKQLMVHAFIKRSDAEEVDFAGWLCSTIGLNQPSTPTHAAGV

[21] = system: MV4-11; assay: Antiproliferative activity against human MV4-11 cells; format: functional, cell-based
[22] = target: Histone-lysine N-methyltransferase, H3 lysine-79 specific (Homo sapiens, UniProt Q8TEK3); assay: Inhibition of DOT1L (unknown origin)
Sequence of Histone-lysine N-methyltransferase, H3 lysine-79 specific (Q8TEK3 whole entry): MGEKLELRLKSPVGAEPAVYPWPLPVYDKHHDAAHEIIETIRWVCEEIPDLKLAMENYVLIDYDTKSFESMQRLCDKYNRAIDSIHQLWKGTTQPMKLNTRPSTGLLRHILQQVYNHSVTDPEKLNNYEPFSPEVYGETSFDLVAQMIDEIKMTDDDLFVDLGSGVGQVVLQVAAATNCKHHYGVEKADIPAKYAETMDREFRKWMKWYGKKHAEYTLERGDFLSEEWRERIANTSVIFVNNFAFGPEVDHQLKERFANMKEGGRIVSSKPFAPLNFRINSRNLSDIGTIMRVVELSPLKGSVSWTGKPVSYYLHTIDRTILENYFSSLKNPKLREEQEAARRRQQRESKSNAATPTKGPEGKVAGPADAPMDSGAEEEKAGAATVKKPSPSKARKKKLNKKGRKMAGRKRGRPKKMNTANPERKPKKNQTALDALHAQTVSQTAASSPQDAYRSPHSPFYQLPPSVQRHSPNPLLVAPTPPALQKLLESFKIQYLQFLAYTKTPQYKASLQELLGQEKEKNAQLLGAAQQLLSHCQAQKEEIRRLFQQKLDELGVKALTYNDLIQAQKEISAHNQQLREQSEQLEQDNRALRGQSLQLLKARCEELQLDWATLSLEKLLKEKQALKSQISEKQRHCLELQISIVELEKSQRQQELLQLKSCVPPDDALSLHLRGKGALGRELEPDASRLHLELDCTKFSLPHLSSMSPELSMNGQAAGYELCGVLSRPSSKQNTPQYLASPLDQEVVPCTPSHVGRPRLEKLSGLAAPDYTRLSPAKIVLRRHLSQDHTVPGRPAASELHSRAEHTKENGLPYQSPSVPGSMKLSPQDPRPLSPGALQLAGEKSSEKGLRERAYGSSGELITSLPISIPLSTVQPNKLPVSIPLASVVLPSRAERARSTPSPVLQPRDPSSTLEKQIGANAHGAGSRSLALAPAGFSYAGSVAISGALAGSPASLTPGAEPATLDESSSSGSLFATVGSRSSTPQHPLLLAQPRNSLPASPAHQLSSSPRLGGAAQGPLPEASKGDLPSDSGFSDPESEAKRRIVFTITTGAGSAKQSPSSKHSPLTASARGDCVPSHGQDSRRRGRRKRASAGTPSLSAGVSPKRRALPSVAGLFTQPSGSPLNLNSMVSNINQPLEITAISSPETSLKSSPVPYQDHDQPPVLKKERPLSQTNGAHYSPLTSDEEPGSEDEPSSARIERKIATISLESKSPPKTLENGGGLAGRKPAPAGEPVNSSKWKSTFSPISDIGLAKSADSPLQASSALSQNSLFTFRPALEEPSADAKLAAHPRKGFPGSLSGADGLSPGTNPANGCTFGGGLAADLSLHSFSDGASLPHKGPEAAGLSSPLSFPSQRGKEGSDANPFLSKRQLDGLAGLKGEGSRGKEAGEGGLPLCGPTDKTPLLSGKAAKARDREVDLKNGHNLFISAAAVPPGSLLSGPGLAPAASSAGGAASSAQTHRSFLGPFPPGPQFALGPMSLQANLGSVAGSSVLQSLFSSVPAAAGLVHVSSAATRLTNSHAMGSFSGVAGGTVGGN

[23] = target: Epidermal growth factor receptor (Homo sapiens, UniProt P00533)
Sequence of Epidermal growth factor receptor (P00533 whole entry): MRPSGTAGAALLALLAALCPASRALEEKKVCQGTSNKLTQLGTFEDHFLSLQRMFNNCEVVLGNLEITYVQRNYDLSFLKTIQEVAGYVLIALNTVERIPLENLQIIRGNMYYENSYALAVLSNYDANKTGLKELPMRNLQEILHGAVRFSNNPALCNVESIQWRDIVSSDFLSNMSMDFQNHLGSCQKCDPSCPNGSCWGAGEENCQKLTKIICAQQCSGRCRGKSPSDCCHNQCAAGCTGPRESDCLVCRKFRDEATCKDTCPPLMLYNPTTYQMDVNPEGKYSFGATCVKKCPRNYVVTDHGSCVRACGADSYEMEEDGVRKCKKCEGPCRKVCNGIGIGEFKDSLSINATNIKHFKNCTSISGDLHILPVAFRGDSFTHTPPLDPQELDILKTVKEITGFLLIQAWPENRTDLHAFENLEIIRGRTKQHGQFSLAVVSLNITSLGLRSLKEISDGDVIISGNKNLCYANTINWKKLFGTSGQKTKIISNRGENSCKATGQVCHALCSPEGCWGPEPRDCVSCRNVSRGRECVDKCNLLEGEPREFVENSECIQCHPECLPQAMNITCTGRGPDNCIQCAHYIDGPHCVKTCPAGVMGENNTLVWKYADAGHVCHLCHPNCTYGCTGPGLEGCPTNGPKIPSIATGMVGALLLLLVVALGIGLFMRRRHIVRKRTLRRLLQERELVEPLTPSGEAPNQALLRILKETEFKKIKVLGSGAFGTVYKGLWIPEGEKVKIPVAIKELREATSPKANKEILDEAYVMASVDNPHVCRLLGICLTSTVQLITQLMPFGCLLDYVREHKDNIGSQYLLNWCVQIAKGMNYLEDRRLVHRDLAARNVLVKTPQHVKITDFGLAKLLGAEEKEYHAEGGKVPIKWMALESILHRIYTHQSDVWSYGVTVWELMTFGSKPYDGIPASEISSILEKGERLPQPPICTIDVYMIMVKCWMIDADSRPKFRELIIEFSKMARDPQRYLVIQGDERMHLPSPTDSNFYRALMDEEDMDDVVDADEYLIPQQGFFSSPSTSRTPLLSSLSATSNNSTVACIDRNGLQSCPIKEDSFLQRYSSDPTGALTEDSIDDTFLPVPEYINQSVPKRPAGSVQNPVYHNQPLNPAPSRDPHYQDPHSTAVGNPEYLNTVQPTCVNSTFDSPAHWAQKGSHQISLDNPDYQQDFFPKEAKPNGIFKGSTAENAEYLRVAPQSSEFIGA

[24] = system: Plasmodium falciparum; assay: Antimalarial activity against CQ-resistant Plasmodium falciparum Dd2; format: functional, organism-based
[25] = system: HeLa; assay: Antiproliferative activity against human HeLa cells; format: functional, cell-based
[26] = system: MDA-MB-231; assay: Antiproliferative activity against human MDA-MB-231 cells; format: functional, cell-based
[27] = system: KG-1a; assay: Antiproliferative activity against human KG-1a cells; format: functional, cell-based
[28] = system: HepG2; assay: Cytotoxicity against human HepG2 cells; format: functional, cell-based; settings: Homo sapiens, HepG2
[29] = system: SK-OV-3; assay: Antiproliferative activity against human SK-OV-3 cells; format: functional, cell-based
[30] = system: BEL-7404 tumor cell line; assay: Antiproliferative activity against human BEL-7404 cells; format: functional, cell-based
[31] = system: HepG2; assay: Antitumor activity against human HepG2 cells xenografted in nude mouse assessed as reduction in tumor increment rate at 20 mg/kg/day (reference value: 100%); format: functional; set-up: scale not given: the % may be the effect or the level left
[32] = system: Plasmodium falciparum; assay: Antimalarial activity against CQ-resistant Plasmodium falciparum W2; format: functional, organism-based
[33] = system: Plasmodium falciparum; assay: Antimalarial activity against CQ-sensitive Plasmodium falciparum D6; format: functional, organism-based
[34] = system: Plasmodium berghei; assay: Antiplasmodial activity against Plasmodium berghei infected in mouse assessed as increase in mean survival time at 100 mg/kg, po administered for 3 days (reference value: 7.6 day); format: functional; settings: time 3 day
[35] = system: Plasmodium berghei; assay: Antimalarial activity against liver stage Plasmodium berghei; format: functional, organism-based
[36] = system: HeLa; assay: Cytotoxicity against human HeLa cells at 2.5 uM; format: functional
[37] = system: MCF7; assay: Antiproliferative activity against human MCF7 cells; format: functional, cell-based; settings: mcf7
[38] = system: RPMI-8226; assay: Cytotoxicity against human RPMI-8226 cells; format: functional, cell-based
[39] = system: Hep 3B2; assay: Cytotoxicity against human Hep3B cells; format: functional, cell-based
[40] = Cytotoxicity against human SLMT-1 cells
[41] = system: G-361; assay: Antiproliferative activity against human G-361 cells; format: functional, cell-based
[42] = system: A2780; assay: Induction of apoptosis in human A2780 cells assessed as accumulation at G2/M phase at 5 uM (reference value: 10%); format: functional
[43] = system: MCF7; assay: Induction of apoptosis in human MCF7 cells assessed as accumulation at G2/M phase at 10 uM (reference value: 10%); format: functional
[44] = system: Plasmodium berghei; assay: Antimalarial activity against Plasmodium berghei ANKA infected in mouse assessed increase in survival time (reference value: 6.8 day); format: functional

IC50 [14]: 1700 nM
Compound: Cc1cc(Nc2ccc(NC(=O)c3ccc(Nc4ccnc5ccccc45)cc3)cc2)nc(N)n1
IC50 [15]: 1700 nM | IC50 [16]: 1700 nM | IC50 [17]: 1700 nM

IC50 [8]: 1900 nM | IC50 [9]: 1900 nM | IC50 [10]: 1900 nM | IC50 [11]: 1900 nM | IC50 [12]: 1900 nM
Compound: COc1nc2ccccc2cc1/C=C1/C=C(c2ccccc2)NC1=O

IC50 [21]: 1290 nM | IC50 [22]: 3550 nM
Compound: Cc1cc(Nc2ccc3nc(C)cc(N)c3c2)nc(NCCCCCCNC(=O)Nc2cc(C(F)(F)F)cc(C(F)(F)F)c2)n1

IC50 [23]: 37.1 nM
Compound: COc1ccc2nc(Cl)c(/C=C/C(=O)c3ccc(C)cc3)cc2c1

IC50 [25]: 50 nM | IC50 [26]: 540 nM
Compound: Cc1ccc(Nc2nnc(-c3cc(-c4ccc(Br)cc4)nc4ccccc34)o2)cc1
IC50 [27]: 1210 nM

IC50 [23]: 31.8 nM
Compound: COc1ccc2nc(Cl)c(C3CC(c4ccc(C)cc4)=NN3c3nc(-c4ccc(F)cc4)cs3)cc2c1 (stereo not drawn)

IC50 [29]: 7540 nM | IC50 [8]: 7540 nM | IC50 [30]: 7540 nM
Compound: Cc1cc2nc(-c3cc4ccccc4nc3Cl)[nH]c2cc1C
IC50 [28]: 7540 nM | Activity [31]: 19.5%

IC50 [1]: 380 nM | IC50 [35]: 5400 nM
Compound: COc1cc(C)c2c(Oc3ccc(F)c(F)c3)c(OC)cc(NC(C)CCON=C(C)C)c2n1 (stereo not drawn)

IC50 [35]: 1100 nM
Compound: COc1cc(NC(C)CCCN)c2ncccc2c1 (stereo not drawn) [PRIMAQUINE]

IC50 [25]: 50 nM | IC50 [26]: 540 nM
Compound: COc1ccc2nc(-c3ccc(Br)cc3)cc(-c3nnc(Nc4ccc([N+](=O)[O-])cc4)o3)c2c1
IC50 [27]: 1210 nM

Further lines, the molecule ahead of its results:

Compound: Cc1ccc(/C=C2/SC(c3ccc(Cl)cc3)N(Nc3cc(C)c4ccccc4n3)C2=O)cc1 (stereo not drawn)
IC50 [1]: 0.423 µg/mL | IC50 [2]: 0.824 µg/mL (≈ 1.75 µM) | Activity [3]: 73.4%

Compound: C[C@@H]1CCC2[C@@H](C)[C@H](OC(=O)CCC(=O)OCCNc3ccnc4cc(Cl)ccc34)O[C@@H]3O[C@@]4(C)CC[C@@H]1[C@@]23OO4 (stereo partly drawn)
Activity [4]: 95.2% | Activity [5]: 78.6% | IC50 [6]: 560000 nM | inhibition (INH) [7]: 71.9%

Compound: COc1ccc(/C=C\c2cc(OC)c(OC)c(OC)c2)cc1O [COMBRETASTATIN A4]
IC50 [8]: 180 nM | IC50 [9]: 180 nM | IC50 [10]: 180 nM | IC50 [11]: 180 nM | IC50 [12]: 180 nM | IC50 [13]: 1560 nM

Compound: Cc1c(Cc2cccc(N(C)S(=O)(=O)CCCNCCCC(=O)N3CCN(c4ccc(Nc5c(C(N)=O)cnc6ccc(-c7cnc8ccccc8c7)cc56)cc4C(F)(F)F)CC3)c2)c(=O)oc2cc(OC(=O)N(C)C)ccc12
GI50 [18]: 4660 nM | IC50 [19]: 190 nM | IC50 [20]: 980 nM

Compound: CN(C)CCNc1cc(/C=C/c2cccs2)nc2ccccc12
IC50 [24]: 33 nM

Compound: Cc1c(Cl)ccc2cc(/C=C/C(=O)c3ccc(Br)cc3)c(Cl)nc12
IC50 [32]: 38 nM | IC50 [33]: < 50 nM | Time [34]: 11.8 days

Compound: COc1cc2nc(N3CCCN(C)CC3)nc(NC3CCN(Cc4ccccc4)CC3)c2cc1OC
Activity [36]: 63%

Compound: COc1cccc2c1C(=O)c1c(O)c3c(c(O)c1C2=O)C[C@@](O)(C(=O)CO)C[C@@H]3O[C@H]1C[C@H](N)[C@H](O)[C@H](C)O1 [DOXORUBICIN]
IC50 [18]: 410 nM | IC50 [37]: 1980 nM | IC50 [38]: 410 nM | IC50 [39]: 270 nM | IC50 [40]: 270 nM | IC50 [41]: 2440 nM

Compound: COc1cc(C(=O)/C=C/c2c(Cl)nc3c(C(=O)c4ccccc4)cccc3c2OC)cc(OC)c1OC
Activity [42]: 50% | Activity [43]: 50%

Compound: COC(=O)[C@H](Cc1c[nH]c2ccccc12)NC(=O)CSc1ccnc2cc(Cl)ccc12
inhibition ([6]; concentration not given here): 61.1% | Time [44]: 24.6 days

From ChEMBL document CHEMBL5230155, “Recent contributions of quinolines to antimalarial and anticancer drug discovery research” (Eur J Med Chem, 2021)
